According to US20260226084A1, “DUAL RAF AND TUBULIN INHIBITORS AND METHODS OF USE THEREOF” (Deciphera Pharmaceuticals, LLC, priority 2023, published 2026):
Where two headings read alike, the source gives them in different places.

Columns and labels:
MiaPaca-2 cells = assay: MiaPaca-2 Cell Proliferation Assay; assay type: cell-based; conditions: Homo sapiens
How it was run: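 Viability was read as resazurin fluorescence (540 nm excitation, 600 nm emission) after 5–6 h with dye. Compounds were tested as serial dilutions in triplicate, with IC50 derived from the dose–response.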

Pa16c cells = assay: Pa16c Cell Proliferation Assay; assay type: cell-based; conditions: Table 2, read-out: Inhibition of cell proliferation in Pa16c (IC50 class)
How it was run: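 Mouse Pa16c cells, 750/well in DMEM with 10% FBS, exposed to serially diluted compound in triplicate for 67 to 72 h at 37° C. Viability read by resazurin reduction over a further 18 to 24 h (ex 540/em 600 nm). IC50 calculated from the dose-response.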

[1] = MIA PaCa-2, MiaPaca-2 cells, Table 2, read-out: Inhibition of cell proliferation in MiaPaca-2 (IC50 class)
[2] = MIA PaCa-2, Table 3, read-out: MiaPaca-2 (IC50 class)

| IC50 (MiaPaca-2 cells; [1]) [nM] | IC50 (MiaPaca-2 cells; [2]) [nM] | SMILES | IC50 (Pa16c cells) [nM] |
| --- | --- | --- | --- |
| 100 to 500 | 100 to 500 | Cc1ccc(NC(=O)c2cnc(C(F)(F)F)nc2)cc1-c1ccnc(-c2ccnc(NC(=O)C3CC3)c2)c1 [Example 17] | < 100 |
| < 100 | < 100 | Cc1ccc(NC(=O)c2cc(C3CC3)cnn2)cc1-c1ccnc(-c2ccnc(NC(=O)C3CC3)c2)c1 [Example 43] | < 100 |
| < 100 | < 100 | Cc1ccc(NC(=O)c2cc(C(C)(F)F)cnn2)cc1-c1ccnc(-c2ccnc(NC(=O)C3CC3)c2)c1 [Example 57] | 100 to 500 |
| < 100 | < 100 | Cc1ccc(NC(=O)c2cc(C(F)(F)F)cnn2)cc1-c1ccnc(-c2ccnc(NC(=O)C3CC3)c2)c1 [Example 67] | < 100 |
| < 100 | < 100 | Cc1ccc(NC(=O)c2cc(C#N)cnn2)cc1-c1ccnc(-c2ccnc(NC(=O)C3CC3)c2)c1 [Example 96, 5-cyano-N-(3-(2′-(cyclopropanecarboxamido)-[2,4′-bipyridin]-4-yl)-4-methylphenyl)pyridazine-3-carboxamide] | 1000 to 10000 |
